From patent publication US9078897B1, “Concentrated, inhalable antibiotic formulation” (ARADIGM CORPORATION, priority 2006, dated 2015)

Key:
[1] = system: P. aeruginosa; conditions: cited from earlier work
[2] = system: IL-1; test: IL-1 levels in lungs after 14 days of inhalation; type: in vivo, rats; conditions: then 28 day recovery evaluation
Description: The explanation for this surprising effect may be that the presence of free ciprofloxacin in the lung attenuates the release of cytokines which attract macrophages into the lung.

Compound	activity against P. aeruginosa [1]	levels of IL-1 [2]
CC[C@H]1OC(=O)[C@H](C)[C@@H](O[C@H]2C[C@@](C)(OC)[C@@H](O)[C@H](C)O2)[C@H](C)[C@@H](O[C@@H]2O[C@H](C)C[C@H](N(C)C)[C@H]2O)[C@](C)(O)C[C@@H](C)CN(C)[C@H](C)[C@@H](O)[C@]1(C)O [azithromycin]	no direct activity	
O=C(O)c1cn(C2CC2)c2cc(N3CCNCC3)c(F)cc2c1=O [free ciprofloxacin, ciprofloxacin]		return to baseline values
NC[C@H]1O[C@H](O[C@H]2[C@H](O)[C@@H](O[C@H]3O[C@H](CO)[C@@H](O)[C@H](N)[C@H]3O)[C@H](N)C[C@@H]2N)[C@H](N)C[C@@H]1O [tobramycin]	possesses activity	
